Test results as given in patent US6750194B1, “Methods of identifying compounds for regulating muscle mass or function using vasoactive intestinal peptide receptors” (The Procter & Gamble Company, priority 2000, dated 2004).
Ends that are not written are not given here.

Key:
skeletal muscle atrophy = assay: Animal models of skeletal muscle atrophy, summary of FIGS. 1-5; assay type: in vivo; details: theophylline alone
[1] = tested on: denervated tibialis anterior and medial gastrocnemius muscles; assay: Mouse denervation atrophy model, agonists subcutaneously 2x daily with theophylline (FIG. 1); assay type: in vivo; details: male mice, right sciatic nerve denervation; 0.1 and 0.3 mg/kg s.c. 2x daily + theophylline 30 mg/kg i.p. 2x daily, nine days; versus saline
Procedure: Legend for the X-axis: A: Saline, B: VPAC1R agonist (0.1 mg/kg)+T, C: VPAC1R agonist (0.3 mg/kg)+T, D: VPAC2R agonist (0.1 mg/kg)+T, E: VPAC2R agonist (0.3 mg/kg)+T, F: PACAP-38 (0.1 mg/kg)+T, G: PACAP-38 (0.3 mg/kg)+T.
(VPAC1R agonist), the VPAC2 receptor selective agonist, Ro 25-1553 (VPAC2R agonist), or the VPAC1/VPAC2 receptor nonselective agonist, PACAP-38. Following denervation of the right sciatic nerve, male mice were injected subcutaneously in the midscapular region twice daily, with either the above indicated agents at the doses indicated in FIGS. 1A and 1B or vehicle control (physiological saline) for nine days. These agonists were co-administered with twice daily intra-peritoneal dosing of the phosphodiesterase inhibitor theophylline (T-30 mg/kg) (included to increase the magnitude and the duration of action of cAMP signals induced by the VPAC receptor agonists). On day nine, the medial gastrocnemius and tibialis anterior muscles were removed and weighed to determine the degree of atrophy. […] Statistical significance of the results were determined using ANCOVA (Douglas C. Montgomery, Design and Analysis of Experiments, John Wiley and Sons, New York (2nd ed. 1984)).
The sciatic nerve denervation atrophy model involves anesthetizing the animal followed by the surgical removal of a short segment of either the right or left sciatic nerve, e.g. in mice the sciatic nerve is isolated approximately at the midpoint along the femur and a 3-5 mm segment is removed. This denervates the lower hind limb musculature resulting in atrophy of these muscles. Typically, innervation to the biceps femoris is left intact to provide satisfactory motion of the knee for virtually normal ambulation. Typically, in untreated animals, muscle mass of the denervated muscles is reduced 30-50% ten days following denervation. Following denervation, test compounds are administered e.g., by injection or by continuous infusion, e.g. via implantation of an osmotic minipump (e.g. Alza, Palo Alto, Calif.), to determine their effect on denervation induced skeletal muscle atrophy. At various times following denervation, the animals are euthanized and lower leg muscles are dissected rapidly from both the denervated and nondenervated legs, the muscles, cleaned of tendons and connective tissue, are weighed. The extent of atrophy in the affected muscles is analyzed, for example, by measuring muscle mass, muscle cross-sectional area, myofiber cross-sectional area or contractile protein content.

[2] = tested on: glucocorticoid-induced atrophied tibialis anterior and medial gastrocnemius muscles; assay: Mouse glucocorticoid (dexamethasone)-induced atrophy model (FIG. 3); assay type: in vivo; details: male mice, dexamethasone 1.2 mg/kg/d in drinking water; 0.1 and 0.3 mg/kg s.c. 2x daily + theophylline 30 mg/kg i.p., nine days
Procedure: Legend for the X-axis: 1: Saline+Dexamethasone (1.2 mg/kg/day included in the drinking water), 2: PACAP-38 (0.1 mg/kg)+Dexamethasone+T, 3: PACAP-38 (0.3 mg/kg)+Dexamethasone+T, 4: VPAC1R agonist (0.1 mg/kg)+Dexamethasone+T, 5: VPAC1R agonist (0.3 mg/kg)+Dexamethasone+T, 6: VPAC2R agonist (0.1 mg/kg)+Dexamethasone+T, 7: VPAC2R agonist (0.3 mg/kg)+Dexamethasone+T.
(VPAC1R agonist), the VPAC2 receptor selective agonist, Ro 25-1553 (VPAC2R agonist), or the VPAC1/VPAC2 receptor nonselective agonist, PACAP-38. Following the addition of the glucocorticoid, dexamethasone to the drinking water (1.2 mg/kg/d), male mice were injected subcutaneously in the midscapular region twice daily, with either the above indicated agents at the doses indicated in FIGS. 3A and 3B or vehicle control (physiological saline) for nine days. These agonists were co-administered with twice daily intra-peritoneal dosing of the phosphodiesterase inhibitor theophylline (T—30 mg/kg). Nine days following the initiation of dosing of the VPAC receptor agonists and dexamethasone, the medial gastrocnemius and tibialis anterior muscles were removed and weighed to determine the degree of atrophy. […] Statistical significance of the results were determined using ANCOVA.
The glucocorticoid induced atrophy model involves the administration of a glucocorticoid to the test animal, e.g. 1.2 mg/kg/day of dexamethasone in the drinking water. Typically, in untreated animals, skeletal muscle mass is reduced 30-50% following ten days of dexamethasone administration. Concomitantly with, or following glucocorticoid administration, test compounds are administered e.g., by injection or by continuous infusion to determine their effect on glucocorticoid induced skeletal muscle atrophy. At various times following glucocorticoid administration, the extent of atrophy in the affected muscles is analyzed as described above for the denervation model.

VPAC2 receptor = molecular target: T1, VPAC2 receptor (Homo sapiens, UniProt P41587); details: relative to PACAP38; cited from earlier work
T1 sequence (P41587 24-438): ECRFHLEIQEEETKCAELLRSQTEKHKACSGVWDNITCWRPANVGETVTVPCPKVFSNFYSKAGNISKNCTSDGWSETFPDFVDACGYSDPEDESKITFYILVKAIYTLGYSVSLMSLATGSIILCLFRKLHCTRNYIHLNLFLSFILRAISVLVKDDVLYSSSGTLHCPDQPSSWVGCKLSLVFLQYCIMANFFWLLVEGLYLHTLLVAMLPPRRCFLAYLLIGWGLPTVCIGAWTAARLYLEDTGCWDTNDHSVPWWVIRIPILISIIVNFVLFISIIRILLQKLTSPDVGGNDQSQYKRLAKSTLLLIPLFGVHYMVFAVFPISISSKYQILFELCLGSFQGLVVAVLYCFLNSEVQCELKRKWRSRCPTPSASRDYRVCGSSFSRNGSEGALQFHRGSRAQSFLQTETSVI

[3] = tested on: denervated and non-denervated (control) tibialis anterior and medial gastrocnemius muscles; assay: Mouse denervation atrophy model, continuous infusion by osmotic minipump (FIG. 2); assay type: in vivo; details: male mice, continuous infusion by osmotic minipump 0.3, 1, 3 mg/kg daily, no theophylline, day nine
Procedure: Legend for the X-axis: A: water infused, B: VPAC1R agonist (0.3 mg/kg), C: VPAC1R agonist (1 mg/kg), D: VPAC1R agonist (3 mg/kg), E: VPAC2R agonist (0.3 mg/kg), F: VPAC2R agonist (1 mg/kg), G: VPAC2R agonist (3 mg/kg), H: PACAP-38 (0.3 mg/kg), I: PACAP-38 (1 mg/kg), PACAP-38 (3 mg/kg).
(VPAC1R agonist), the VPAC2 receptor selective agonist, Ro 25-1553 (VPAC2R agonist), or the VPAC1/VPAC2 receptor nonselective agonist, PACAP-38. Following denervation of the right sciatic nerve, male mice were dosed with the above indicated agents or vehicle control (physiological saline) by continuous infusion using an ALZeT osmotic minipump at 5 μl/hr until the end of the experimental period. The daily delivered dose of the agents are as indicated on FIGS. 2A and 2B. Minipump implantation was performed at the same time as the sciatic nerve denervation. On day nine the medial gastrocnemius and tibialis anterior muscles were removed and weighed to determine the degree of atrophy. […] Statistical significance of the results were determined using ANCOVA.
(§1) The sciatic nerve denervation atrophy model involves anesthetizing the animal followed by the surgical removal of a short segment of either the right or left sciatic nerve, e.g. in mice the sciatic nerve is isolated approximately at the midpoint along the femur and a 3-5 mm segment is removed. This denervates the lower hind limb musculature resulting in atrophy of these muscles. Typically, innervation to the biceps femoris is left intact to provide satisfactory motion of the knee for virtually normal ambulation. Typically, in untreated animals, muscle mass of the denervated muscles is reduced 30-50% ten days following denervation. […] The extent of atrophy in the affected muscles is analyzed, for example, by measuring muscle mass, muscle cross-sectional area, myofiber cross-sectional area or contractile protein content.

[4] = tested on: casting-induced atrophied tibialis anterior muscle and normal medial gastrocnemius muscle; assay: Mouse disuse (casting) atrophy model (FIG. 4); assay type: in vivo; details: male mice, right hind leg cast; 0.03, 0.1, 0.3 mg/kg s.c. 2x daily + theophylline 30 mg/kg i.p., nine days
Procedure: (§2) Legend for the X-axis: A: Saline, B: VPAC2R agonist (0.03 mg/kg)+T, C: VPAC2R agonist (0.1 mg/kg)+T, D: VPAC2R agonist (0.3 mg/kg)+T.
Following casting of the right hind leg, male mice were injected subcutaneously in the midscapular region twice daily, with either the above indicated agent at the doses indicated in FIGS. 4A and 4B or vehicle control (physiological saline) for nine days. The VPAC2R agonist was co-administered with twice daily intra-peritoneal dosing of the phosphodiesterase inhibitor theophylline (T—30 mg/kg). On day nine, the medial gastrocnemius and tibialis anterior muscles were removed and weighed to determine the degree of atrophy. […] Statistical significance of the results were determined using ANCOVA.
The leg casting disuse atrophy model involves casting one hind leg of an animal from the knee down through the foot. Typically, muscle mass is reduced 20-40% after ten days of casting. Following casting, test compounds are administered by injection or by continuous infusion via implantation of an osmotic minipump (e.g. Alza, Palo Alto, Calif.) to determine their effect on leg casting induced skeletal muscle atrophy. At various times following leg casting, the extent of atrophy in the affected muscles is analyzed as described above for the denervation model.

[5] = tested on: atrophy of the skeletal muscle of the entire body due to disuse; assay: Prophylactic treatment of skeletal muscle atrophy in a comatose subject (Example 11); assay type: in vivo; details: human 50 kg, 3 ml of 500 mg/ml with D,L lactic and glycolic acid copolymer i.m. once each month
Procedure: A human subject weighing 50 kg is admitted to the hospital in a comatose state. The subject is treated to prevent atrophy of the skeletal muscle of the entire body due to disuse while in the comatose state. Specifically, once each month while in the coma, the subject is administered, via intramuscular injection, 3 ml of an aqueous solution of pH 6.0 comprising the following: […]

[6] = tested on: denervated tibialis anterior and extensor digitorum longus (EDL) muscles; assay: Rat denervation atrophy model (FIG. 5); assay type: in vivo; details: male rats, right sciatic nerve denervation; 0.03, 0.1, 0.3 mg/kg s.c. 2x daily + theophylline 30 mg/kg i.p., nine days
Procedure: as §2
Following denervation of the right sciatic nerve, male rats were injected subcutaneously in the midscapular region twice daily, with either the VPAC2R receptor agonist at the doses indicated in FIGS. 5A and 5B or vehicle control (physiological saline) for nine days. The VPAC2R receptor agonist was co-administered with twice daily intra-peritoneal dosing of the phosphodiesterase inhibitor theophylline (T—30 mg/kg). On day nine, the tibialis anterior and extensor digitorum longus (EDL) muscles were removed and weighed to determine the degree of atrophy. […] Statistical significance of the results were determined using ANCOVA.
as §1, with “muscles.” for “muscles. Typically, innervation to the biceps femoris is left intact to provide satisfactory motion of the knee for virtually normal ambulation. Typically, in untreated animals, muscle mass of the denervated muscles is reduced 30-50% ten days following denervation.”

VPAC1 receptor = molecular target: T2, VPAC1 receptor (Homo sapiens, UniProt P32241); details: relative to PACAP38; cited from earlier work
T2 sequence (P32241 31-457): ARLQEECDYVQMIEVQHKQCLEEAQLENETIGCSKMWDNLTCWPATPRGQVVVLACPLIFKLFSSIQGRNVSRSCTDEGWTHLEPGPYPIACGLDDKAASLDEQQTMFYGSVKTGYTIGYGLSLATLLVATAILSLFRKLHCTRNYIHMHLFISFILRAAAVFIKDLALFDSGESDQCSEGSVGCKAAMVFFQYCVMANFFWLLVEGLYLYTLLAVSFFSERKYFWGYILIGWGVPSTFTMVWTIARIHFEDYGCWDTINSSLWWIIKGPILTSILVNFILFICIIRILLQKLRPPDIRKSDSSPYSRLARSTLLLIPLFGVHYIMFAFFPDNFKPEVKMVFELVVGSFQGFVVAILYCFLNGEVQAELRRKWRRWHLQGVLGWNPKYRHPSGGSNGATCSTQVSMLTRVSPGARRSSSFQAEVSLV

Cn1c(=O)c2[nH]cnc2n(C)c1=O [Theophylline, theophylline]
effect of theophylline administered by itself in the atrophy models (skeletal muscle atrophy): no effect

PACAP-38 (HSDGIFTDSYSRYRKQMAVKKYLAAVLGKRYKQRVKNK; ends and bridges not checked; UniProt P18509 132-169, looked up)
atrophy of the denervated medial gastrocnemius muscle (muscle weight, FIG. 1B) [1]: inhibited atrophy
atrophy of the denervated tibialis anterior muscle (muscle weight, FIG. 1A) [1]: inhibited atrophy
muscle atrophy of the medial gastrocnemius induced by glucocorticoid administration (FIG. 3B) [2]: inhibits muscle atrophy

Ro 25-1553
potency as VPAC2 receptor selective agonist (VPAC2 receptor): potency similar to PACAP38
atrophy of the denervated tibialis anterior muscle (muscle weight, FIG. 2A) ([3]; sciatic denervation): inhibited atrophy
hypertrophy of the non-denervated (control) medial gastrocnemius muscle (FIG. 2B) [3]: induced hypertrophy
hypertrophy of the non-denervated (control) tibialis anterior muscle (FIG. 2A) [3]: induced hypertrophy
disuse-induced atrophy of the tibialis anterior muscle (FIG. 4A) [4]: inhibited disuse-induced atrophy
hypertrophy of the medial gastrocnemius muscle (normal, FIG. 4B) [4]: induced hypertrophy
atrophy of the denervated medial gastrocnemius muscle (muscle weight, FIG. 1B) [1]: inhibited atrophy
atrophy of the denervated tibialis anterior muscle (muscle weight, FIG. 1A) [1]: inhibited atrophy
skeletal muscle mass and physical therapy needs [5]: measurable preservation of skeletal muscle mass and reduced physical therapy needs
atrophy of the denervated EDL muscle (FIG. 5B) [6]: inhibited atrophy
atrophy of the denervated tibialis anterior muscle (FIG. 5A) [6]: inhibited atrophy
muscle atrophy of the medial gastrocnemius induced by glucocorticoid administration (FIG. 3B) [2]: inhibited muscle atrophy
muscle atrophy of the tibialis anterior induced by glucocorticoid administration (FIG. 3A) [2]: inhibited muscle atrophy

[K^15, R^16, L^27VIP(1-7), GRF(8-27)-NH2]
potency as VPAC1 receptor selective agonist (VPAC1 receptor): potency similar to PACAP38
atrophy of the denervated medial gastrocnemius muscle (muscle weight, FIG. 1B) [1]: inhibited atrophy
muscle atrophy of the tibialis anterior induced by glucocorticoid administration (FIG. 3A) [2]: inhibited muscle atrophy
